# Patent US7964531B2, “3-phenoxy-4-pyridazinol derivatives and herbicidal composition containing the same” (Mitsui Chemicals Agro, Inc., priority 2001, dated 2011)
row,Compound,melting point
1,"Cc1ccc(Cl)cc1Oc1nnc(Cl)cc1O [Compound No. 618, 6-Chloro-3-(5-chloro-2-methylphenoxy)-4-pyridazinol]",174 to 180 °C
2,"O=C(O)C1(c2ccccc2Oc2nnc(Cl)cc2O)CCC1 [Compound No. 288, 1-{2-[(6-Chloro-4-hydroxy-3-pyridazinyl)oxy]phenyl}cyclobutanecarboxylic acid]",173 to 175 °C
3,"CC(C)c1cc(Oc2nnc(Cl)cc2O)cc(C(C)C)c1 [Compound No. 642, 6-Chloro-3-(3,5-diisopropylphenoxy)-4-pyridazinol]",231 to 235 °C
4,"C=CCc1ccccc1Oc1nnc(Cl)cc1O [Compound No. 307, 3-(2-Allylphenoxy)-6-chloro-4-pyridazinol]",200 to 202.5 °C
5,"Cc1cc(C)c(C2CC2)c(Oc2nnc(Cl)cc2O)c1C [Compound No. 1126, 6-Chloro-3-(2-cyclopropyl-3,5,6-trimethylphenoxy)-4-pyridazinol]",212 to 219 °C
6,"CC1COc2cccc(Oc3nnc(Cl)cc3O)c21 (centres unmarked) [Compound No. 529, 6-Chloro-3-[(3-methyl-2,3-dihydro-1-benzofuran-4-yl)oxy]-4-pyridazinol]",238 to 245 °C
7,Cc1cccc(C2CC2)c1Oc1nnc(Cl)cc1OC(=O)N(C(C)C)C(C)C,103 to 105 °C
8,"COC1(c2ccccc2Oc2nnc(Cl)cc2O)CC1 [Compound No. 202, 6-Chloro-3-[2-(1-methoxycyclopropyl)phenoxy]-4-pyridazinol]",157 to 165 °C
9,"Cc1cc(Oc2nnc(Cl)cc2O)cc(C(C)C)c1 [Compound No. 1000, 6-Chloro-3-(3-isopropyl-5-methylphenoxy)-4-pyridazinol]",204 to 206 °C
10,Cc1cccc(C2CC2)c1Oc1nnc(Cl)cc1OC(=O)N(C)c1ccccn1,140 to 147 °C
11,"COc1ccc(Cl)cc1Oc1nnc(Cl)cc1O [Compound No. 701, 3-(5-Chloro-2-methoxyphenoxy)-6-chloro-4-pyridazinol]",143 to 155 °C
12,"Cc1ccc(C)c(C2CC2)c1Oc1nnc(Cl)cc1O [Compound No. 1073, 6-Chloro-3-(2-cyclopropyl-3,6-dimethylphenoxy)-4-pyridazinol]",171 to 175 °C
13,"CC(C)Cc1ccccc1Oc1nnc(Cl)cc1O [Compound No. 134, 6-Chloro-3-(2-isobutylphenoxy)-4-pyridazinol]",151.5 to 152.5 °C
14,"C/C=C/c1cccc(/C=C/C)c1Oc1nnc(Cl)cc1O [Compound No. 979, 6-Chloro-3-{2,6-di[(1E)-1-propenyl]phenoxy}-4-pyridazinol]",163 to 164 °C
15,"CCC(=O)Oc1cc(Cl)nnc1Oc1c(C)cccc1C1CC1 [Compound No. 1160, 6-Chloro-3-(2-cyclopropyl-6-methylphenoxy)-4-pyridazinyl propionate]",75 to 77 °C
16,"Cc1c(Oc2nnc(Cl)cc2O)cccc1[N+](=O)[O-] [Compound No. 458, 6-Chloro-3-(2-methyl-3-nitrophenoxy)-4-pyridazinol]",241 to 244 °C
17,"Oc1cc(Cl)nnc1Oc1ccccc1OC(F)F [Compound No. 390, 6-Chloro-3-[2-(difluoromethoxy)phenoxy]-4-pyridazinol]",210 to 212 °C
18,"CC(C)(C)c1ccc(C(C)(C)C)c(Oc2nnc(Cl)cc2O)c1 [Compound No. 653, 6-Chloro-3-(2,5-di-tert-butylphenoxy)-4-pyridazinol]",249 to 258 °C
19,"Cc1cc(C)cc(Oc2nnc(Cl)cc2O)c1 [Compound No. 998, 6-Chloro-3-(3,5-dimethylphenoxy)-4-pyridazinol]",178 to 182 °C
20,"Oc1cc(Cl)nnc1Oc1ccccc1C1CC1(Br)Br (centres unmarked) [Compound No. 266, 6-Chloro-3-[2-(2,2-dibromocyclopropyl)phenoxy]-4-pyridazinol]",208 to 210 °C (dec.)
21,"CCCc1cccc(CCC)c1Oc1nnc(Cl)cc1O [Compound No. 890, 6-Chloro-3-(2,6-dipropylphenoxy)-4-pyridazinol]",191 to 193 °C

# Now from value to compound:
row,melting point,Compound
1,162 to 172 °C,"CS(=O)(=O)Oc1cc(Cl)nnc1Oc1ccccc1C1CC1 [Compound No. 1985, 6-Chloro-3-(2-cyclopropylphenoxy)-4-pyridazinyl methanesulfonate]"
2,69 to 71 °C,"Cc1cccc(C2CC2)c1Oc1nnc(Cl)cc1OC(=O)C(C)(C)Br [Compound No. 2697, 6-Chloro-3-(2-cyclopropyl-6-methylphenoxy)-4-pyridazinyl 2-bromo-2-methylpropanoate]"
3,70.5 to 71.5 °C,"CCCS(=O)(=O)Oc1cc(Cl)nnc1Oc1c(C)cccc1C1CC1 [Compound No. 2051, 6-Chloro-3-(2-cyclopropyl-6-methylphenoxy)-4-pyridazinyl 1-propanesulfonate]"
4,149 to 152 °C,"CC(C)=Cc1ccccc1Oc1nnc(Cl)cc1O [Compound No. 2540, 6-Chloro-3-[2-(2-methyl-1-propenyl)phenoxy]-4-pyridazinol]"
5,117 to 119 °C,"Cc1cc(C)cc(C(=O)Oc2cc(Cl)nnc2Oc2c(C)cccc2C2CC2)c1 [Compound No. 3243, 6-Chloro-3-(2-cyclopropyl-6-methylphenoxy)-4-pyridazinyl 3,5-dimethylbenzoate]"
6,105 to 107 °C,"Cc1cccc(C2CC2)c1Oc1nnc(Cl)cc1OC(=O)c1cc2ccccc2s1 [Compound No. 3504, 6-Chloro-3-(2-cyclopropyl-6-methylphenoxy)-4-pyridazinyl 1-benzothiophene-2-carboxylate]"
7,72 to 73 °C,"CCCS(=O)(=O)Oc1cc(Cl)nnc1Oc1ccccc1C [Compound No. 2038, 6-Chloro-3-(2-methylphenoxy)-4-pyridazinyl 1-propanesulfonate]"
8,197 to 199 °C,"CC1(C)Cc2c(Oc3nnc(Cl)cc3O)cccc21 [Compound No. 2556, 6-Chloro-3-[(7,7-dimethylbicyclo[4.2.0]octa-1,3,5-trien-2-yl)oxy]-4-pyridazinol]"
9,133 to 134 °C,"Cc1ccccc1C(=O)Oc1cc(Cl)nnc1Oc1cccc2ccccc12 [Compound No. 1461, 6-Chloro-3-(1-naphthyloxy)-4-pyridazinyl 2-methylbenzoate]"
10,119 to 122 °C,"Cc1ccc(S(=O)(=O)Oc2cc(Cl)nnc2Oc2ccc(Br)cc2C(C)C)cc1 [Compound No. 2248, 3-(4-Bromo-2-isopropylphenoxy)-6-chloro-4-pyridazinyl 4-methylbenzenesulfonate]"
11,91 to 93 °C,"Cc1ccccc1Oc1nnc(Cl)cc1OC(=O)c1ccccc1C [Compound No. 1446, 6-Chloro-3-(2-methylphenoxy)-4-pyridazinyl 2-methylbenzoate]"
12,188 to 200 °C,"Cc1ccc2c(c1Oc1nnc(Cl)cc1O)COC2 [Compound No. 2592, 6-Chloro-3-[(5-methyl-1,3-dihydro-2-benzofuran-4-yl)oxy]-4-pyridazinol]"
13,89 to 91 °C,"Cc1ccccc1C(=O)Oc1cc(Cl)nnc1Oc1ccccc1C1CCCCC1 [Compound No. 1455, 6-Chloro-3-(2-cyclohexylphenoxy)-4-pyridazinyl 2-methylbenzoate]"
14,90 to 92 °C,"Cc1ccc(S(=O)(=O)Oc2cc(Cl)nnc2Oc2cc(C)ccc2C(C)C)cc1 [Compound No. 2249, 6-Chloro-3-(2-isopropyl-5-methylphenoxy)-4-pyridazinyl 4-methylbenzenesulfonate]"
